{"source": "patent US20180055050A1", "about": "(priority 2016, published 2018)", "test_system": "Rice Blast", "design": "species or system Magnaporthe oryzae", "conditions": "in vivo", "data": [{"smiles": "COc1ccnc(C(=O)N[C@H]2COC(=O)[C@H](Cc3ccccc3)[C@@H](OC(=O)C(C)C)[C@H](C)OC2=O)c1OCOC(=O)C(C)C", "note": "[Compound I]", "values": [{"measurement": "Flag Leaf (% INFECT)", "result": "B (key: A: 1-25; B: 26-50; C: 51-75; D: 76-100; E: Not tested)"}, {"measurement": "Panicles (% INCID)", "result": "B (key: A: 1-25; B: 26-50; C: 51-75; D: 76-100; E: Not tested)"}, {"measurement": "Panicles (% INFECT)", "result": "B (key: A: 1-25; B: 26-50; C: 51-75; D: 76-100; E: Not tested)"}]}]}
